Assay results from PMC4125376 (Drug Target Insights, 2014).

Target: Babesia microti lactate dehydrogenase (BmLDH) (Babesia microti, UniProt I7J7V6)
Experiment: NADH formation at […] nm, […] NAD+ and […] lactate, non-linear regression
Format: biochemical

Sequence of Babesia microti lactate dehydrogenase (BmLDH) (I7J7V6 1-332): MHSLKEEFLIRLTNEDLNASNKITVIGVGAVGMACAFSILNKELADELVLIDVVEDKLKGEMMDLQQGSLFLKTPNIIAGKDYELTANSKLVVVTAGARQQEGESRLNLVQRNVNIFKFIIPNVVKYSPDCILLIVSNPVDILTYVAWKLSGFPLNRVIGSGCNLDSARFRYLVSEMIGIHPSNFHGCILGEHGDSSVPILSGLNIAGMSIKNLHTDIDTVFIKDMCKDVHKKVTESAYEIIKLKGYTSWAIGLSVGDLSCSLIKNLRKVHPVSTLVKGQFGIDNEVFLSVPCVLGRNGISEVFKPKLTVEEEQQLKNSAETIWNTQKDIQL

Cc1cc2c(C(C)C)c(O)c(O)c(C=O)c2c(O)c1-c1c(C)cc2c(C(C)C)c(O)c(O)c(C=O)c2c1O [gossypol]
IC50: 345 ± 1.11 nM
